Experimental data published in article PMC6917776, “Discovery of a chemical probe for PRDM9” (Nature Communications, 2019).

Test system: H3K4me3 at known PRDM9 binding loci and control TSS loci
Assay: ChIP-qPCR of H3K4me3 in PRDM9-transfected HEK293T cells
Type: cell-based, human
Settings: Replicate 1; for 2^-dCq (H3K4me3 ChIP relative to H3 ChIP): Figure 7 C, Antibody H3K4me3; for 2^-dCq: H3K4me3 ChIP normalised to H3; for dCq (IP-Input): H3K4me3 antibody
Experimental: ChIP-qPCR assays were then conducted on known PRDM9 binding loci[26]. Ectopic expression of PRDM9^WT increased trimethylation of H3K4 (H3K4me3) at previously described PRDM9-specific intragenic and intergenic regions[26] (Fig. 7; Supplementary Fig. 12). […] The observed increases in H3K4me3 levels at intragenic and intergenic regions are therefore due directly to PRDM9 PR domain-dependent methylation activity, rather than through recruitment of other H3K4 methyltransferases or other indirect mechanisms.
ChIP qPCR analyses of H3K4me3 methylation levels of known PRDM9-bound loci and control loci. […] Concentrations used (µM) are indicated below each plot. (a–d) represent reported loci of PRDM9 methylation; (e, f) are transcriptional start sites (TSSs) which are not known loci of PRDM9 methylation. Data are normalized to total H3 and are presented as the mean ± upper and lower limits from two replicates. Representative plots of two independent experiments are shown in this figure. The coordinates and the genomic features associated with the assayed loci are indicated above each plot. Left Tailed Student's t-tests were performed by comparing DMSO (0 µM) treated cells to compound treated cells that have been transfected with the same plasmids. *p-value < 0.05 and **p-value < 0.01. Note that here we show a representative of two independent experiments (mean ± s.d of technical replicates) for our ChIP-qPCR experiments. Data obtained using this technique are inherently noisy due to stochastic differences in gene activity/histone positioning. Data are thus typically presented as representative rather than averaged. Source data are provided as a Source Data file.
HEK293T cells were transfected with 37.5 μg empty pcDNA3.1(+) vector (Invitrogen), or the same vector expressing either wild-type PRDM9 (PRDM9^WT) or a catalytically dead PRDM9 mutant (PRDM9^Mut) and 75 μL of Lipofectamine 2000 (Invitrogen) in 6 mL of Opti-MEM (GIBCO) for 48 h. […] ChIP assays were then performed as previously described. Briefly, cells were fixed in 1% formaldehyde and the fixation reaction was quenched in a final concentration of 0.1 M glycine. Cell pellets were first lysed in LB1 (50 mM HEPES-KOH pH 7.5, 140 mM NaCl, 1 mM EDTA, 10% Glycerol, 0.5% Igepal, 0.25% TritonX), washed once in LB2 Buffer (10 mM Tris-HCl pH 8, 200 mM NaCl, 1 mM EDTA, 0.5 mM EGTA) and finally sonicated in LB3 buffer (10 mM Tris-HCl pH 8, 100 mM NaCl, 1 mM EDTA, 0.5 mM EGTA, 0.1% Sodium deoxycholate, 0.5% N-laurosylsarcosine) using a bioruptor (Diagenode). Thereafter, 50 μg of chromatin was subjected to ChIP using the following antibodies purchased from Abcam: α-H3K4me3 (1:200, ab8580, lot:GR3207339-1) and α-H3 (1:250, ab1791, lot:GR300978-4). After extensive washing in RIPA wash buffer (50 mM HEPES-KOH pH 7.6, 100 mM LiCl, 1 mM EDTA, 1% Igepal, 0.7% Sodium Deoxycholate), DNA was eluted from beads. The eluted DNA was treated with RNase A and Proteinase K and purified using the QIAGEN PCR purification kit. qPCR was then carried out targeting the indicated loci (Supplementary Table 3). Upper and lower limits were defined by |2^−(dCq±s) − 2^−(∆Cq)|, where s = √((Standard deviation of Input Cq)^2 + (Standard deviation of Target Cq)^2). […]
formation. ChIP qPCR analyses of H3K4me3 methylation levels at known PRDM9-bound and control loci. Cells transfected with empty vector (negative control) or vectors overexpressing either wild-type PRDM9 (PRDM9 WT) or catalytically dead PRDM9 (PRDM9 MUT) were […]
Panels a-d represent reported loci of […]
(1 picture or pasted object on this page, not shown here)
PRDM9 methylation; e-f are TSSs which are not known sites of PRDM9 methylation. Data are normalized to total H3 and are presented as the mean ± upper and lower limits from two […]

[1] = chr2:40281930-40282015 Intragenic (SLC8A1-AS1), Empty Vector
[2] = chr2:40281930-40282015 Intragenic (SLC8A1-AS1), PRDM9
[3] = chr2:40281930-40282015 Intragenic (SLC8A1-AS1), PRDM9_Cat.Dead
[4] = chr2:128811847-128811944 (Intergenic), Empty Vector
[5] = chr2:128811847-128811944 (Intergenic), PRDM9
[6] = chr2:128811847-128811944 (Intergenic), PRDM9_Cat.Dead
[7] = chr3:165514798-165514911 Intragenic (BCHE), Empty Vector
[8] = chr3:165514798-165514911 Intragenic (BCHE), PRDM9
[9] = chr3:165514798-165514911 Intragenic (BCHE), PRDM9_Cat.Dead
[10] = chr8:49932778-49932856 (Intergenic), Empty Vector

COc1cc(OC)cc(-c2noc(N3CCN(C)C4(CCN(c5ccnc(C)c5)CC4)C3)n2)c1 [MRK-740]
2^-dCq (H3K4me3 ChIP relative to H3 ChIP) (chr2:40281930-40282015 Intragenic (SLC8A1-AS1), Plasmid Empty Vector, Drug Conc. 2.5): 0.4152
2^-dCq (H3K4me3 ChIP relative to H3 ChIP) (chr2:40281930-40282015 Intragenic (SLC8A1-AS1), Plasmid Empty Vector, Drug Conc. 5): 0.3238
2^-dCq (H3K4me3 ChIP relative to H3 ChIP) (chr2:40281930-40282015 Intragenic (SLC8A1-AS1), Plasmid Empty Vector, Drug Conc. 10): 0.507
2^-dCq (H3K4me3 ChIP relative to H3 ChIP) (chr2:40281930-40282015 Intragenic (SLC8A1-AS1), Plasmid PRDM9WT, Drug Conc. 2.5): 3.2145
2^-dCq (H3K4me3 ChIP relative to H3 ChIP) (chr2:40281930-40282015 Intragenic (SLC8A1-AS1), Plasmid PRDM9WT, Drug Conc. 5): 2.572
2^-dCq (H3K4me3 ChIP relative to H3 ChIP) (chr2:40281930-40282015 Intragenic (SLC8A1-AS1), Plasmid PRDM9WT, Drug Conc. 10): 2.028
2^-dCq [1]: 0.4145
2^-dCq [2]: 3.496
2^-dCq [3]: 0.3605
2^-dCq [4]: 0.4852
2^-dCq [5]: 2.263
2^-dCq [6]: 0.5507
2^-dCq [7]: 0.3297
2^-dCq [8]: 5.1
2^-dCq [9]: 0.2515
2^-dCq [10]: 0.5103
2^-dCq (chr8:49932778-49932856 (Intergenic), PRDM9): 4.604
2^-dCq (chr8:49932778-49932856 (Intergenic), PRDM9_Cat.Dead): 0.4888
2^-dCq (chr12:6643945-6644023 TSS (GAPDH), Empty Vector): 45.392
2^-dCq (chr12:6643945-6644023 TSS (GAPDH), PRDM9): 42.4818
2^-dCq (chr12:6643945-6644023 TSS (GAPDH), PRDM9_Cat.Dead): 88.4248
2^-dCq (chr19:8510167-8510261 TSS (HNRNPM), Empty Vector): 50.4703
2^-dCq (chr19:8510167-8510261 TSS (HNRNPM), PRDM9): 42.5896
2^-dCq (chr19:8510167-8510261 TSS (HNRNPM), PRDM9_Cat.Dead): 88.2214
dCq (IP-Input) [1]: 1.27
dCq (IP-Input) [2]: -1.806
dCq (IP-Input) [3]: 1.472
dCq (IP-Input) [4]: 1.0432
dCq (IP-Input) [5]: -1.178
dCq (IP-Input) [6]: 0.8606
dCq (IP-Input) [7]: 1.601
dCq (IP-Input) [8]: -2.351
dCq (IP-Input) [9]: 1.992
dCq (IP-Input) [10]: 0.9707
